Laboratory results from paper PMC9786051, “Natural Product 2-Oxokolavenol Is a Novel FXR Agonist” (Molecules, 2022).

How the values were obtained:
[1] = biological target: T1, Farnesoid X receptor (FXR) (Homo sapiens, UniProt Q96RI1); test: AlphaScreen coactivator recruitment with purified FXR-LBD; also luciferase reporter (EC50 […]) and M265I/Y369F mutagenesis; format: binding
T1 construct: gene NR1H4; 6His-FXR-LBD (residues 243-472aa)
T1 sequence (Q96RI1 257-486): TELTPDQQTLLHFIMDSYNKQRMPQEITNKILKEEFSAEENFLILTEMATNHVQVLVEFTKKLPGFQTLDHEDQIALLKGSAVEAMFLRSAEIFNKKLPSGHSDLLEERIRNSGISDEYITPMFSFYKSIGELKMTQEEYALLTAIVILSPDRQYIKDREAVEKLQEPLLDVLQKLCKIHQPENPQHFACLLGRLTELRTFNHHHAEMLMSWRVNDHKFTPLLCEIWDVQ

[2] = biological target: T1, Farnesoid X receptor (FXR); test: AlphaScreen coactivator recruitment with purified FXR-LBD; luciferase reporter; format: biochemical

Compound	EC50 [1] [µM]	AlphaScreen coactivator recruitment with purified FXR-LBD; luciferase reporter [2]
CC1=CC(=O)C[C@@H]2[C@@](C)(CC/C(C)=C/CO)[C@H](C)CC[C@@]12C [2-oxokolavenol]	~3.7	–
CC1=CCC[C@@H]2[C@@](C)(CC/C(C)=C/CO)[C@H](C)CC[C@@]12C [kolavenol]	–	motifs bound to FXR-LBD in response to 2-oxokolavenol, 2-oxokolavelool, kolavenol, or OCA in the AlphaScreen assay
